Data on 25 molecules can be found in US11873292B2, “Trans-indoline cyclopropylamine chemical compound, and method for preparation, pharmaceutical composition, and use thereof” (Shanghai Institute of Materia Medica, Chinese Academy of …, priority 2016, dated 2024).

Structures are written as SMILES. Like-named read-outs stand apart in the source and are kept apart here.

The test system of experiment [1] is Leukemia cell line MV4-11. Nature of the experiment: Growth-inhibitory activity by MTS method. The format is cell-based. Conditions: Homo sapiens, MV4-11 cells. From the text:
MTS assay was used to detect the growth inhibitory effect of tested compounds on leukemia cell MV (4:11), the principle of which was that succinate dehydrogenase in mitochondria in living cells can reduce exogenous thiazole blue to insoluble Blue crystalline Formazan.
MATERIALS: Leukemia cell line MV4-11: pediatric acute lymphocytic leukemia, immunological double phenotype, AF4-MLL fusion t (4,11), is a cell growth inhibitory cell line of LSD1 inhibitor (Cancer cell. 2012, 17; 21(4): 473-487).
1. MV4-11 cells in the logarithmic growth phase were taken, accurately counted 16000 cells/mL, and the diluted cell solution was added to a 96-well plate at 90 μL per well.
2. Fresh medium was taken and sequentially added to a 96-well plate with cell fluid, 90 μL per well.
3. In the compound plate, the compound to be tested at a concentration of 10 mM and the positive compounds ORY-1001 and GSK2879552 were taken and subjected to a 3-fold concentration gradient dilution with DMSO, 8 points for each.
4. 2 μL of the diluted compound was separately added to a 96-well plate containing 98 μL of blank medium, and DMSO group was added with 2 μL of DMSO into 98 μL of blank medium, and mixed for use.
5. The compound homogeneously mixed with the medium was separately added to a 96-well plate in which cells were plated in triplicate, 20 μL per well, and well mixed. In the blank group, 200 μL of IMDM medium was added, and in the DMSO group, 180 μL of the cell-containing medium in DMSO diluted with the medium was added.
6. […]
7. After 10 days, MTS was added and the values were read after 2.5 h of incubation.

The target of another experiment is Human recombinant MAOA (Homo sapiens (Human), UniProt P21397). Nature of the experiment: MAOA in vitro activity experiment (MAO-Glo). The format is biochemical.
For a further experiment, the target named is human recombinant MAOB (Homo sapiens (Human), UniProt P27338). Nature of the experiment: MAOB in vitro activity experiment (MAO-Glo). The format is biochemical.
The target in another experiment is Human recombinant LSD1 (Homo sapiens (Human), UniProt O60341). Nature of the experiment: LSD1 in vitro activity assay (LANCE Ultra LSD1 Histone H3-Lysine 4 Demethylase Assay). The format is biochemical. The following applies: LSD1 inhibition. In general terms: TR-FRET usually uses a lanthanide donor and a delayed reading to cut background.

Sequence of human recombinant MAOB (P27338 whole entry): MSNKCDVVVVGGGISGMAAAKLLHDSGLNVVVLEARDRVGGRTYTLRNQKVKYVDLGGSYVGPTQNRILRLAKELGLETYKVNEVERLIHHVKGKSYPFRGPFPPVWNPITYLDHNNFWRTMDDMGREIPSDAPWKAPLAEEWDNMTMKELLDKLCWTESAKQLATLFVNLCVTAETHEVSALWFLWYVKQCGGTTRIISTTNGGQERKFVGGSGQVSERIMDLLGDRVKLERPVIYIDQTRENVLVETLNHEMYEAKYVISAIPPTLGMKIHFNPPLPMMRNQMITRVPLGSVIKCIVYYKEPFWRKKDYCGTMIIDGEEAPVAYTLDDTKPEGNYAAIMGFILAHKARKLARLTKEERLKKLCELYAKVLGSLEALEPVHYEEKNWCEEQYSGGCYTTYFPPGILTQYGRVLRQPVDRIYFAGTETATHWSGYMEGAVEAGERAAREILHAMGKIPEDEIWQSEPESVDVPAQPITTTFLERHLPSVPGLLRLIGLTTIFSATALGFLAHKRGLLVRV
Sequence of Human recombinant MAOA (P21397 whole entry): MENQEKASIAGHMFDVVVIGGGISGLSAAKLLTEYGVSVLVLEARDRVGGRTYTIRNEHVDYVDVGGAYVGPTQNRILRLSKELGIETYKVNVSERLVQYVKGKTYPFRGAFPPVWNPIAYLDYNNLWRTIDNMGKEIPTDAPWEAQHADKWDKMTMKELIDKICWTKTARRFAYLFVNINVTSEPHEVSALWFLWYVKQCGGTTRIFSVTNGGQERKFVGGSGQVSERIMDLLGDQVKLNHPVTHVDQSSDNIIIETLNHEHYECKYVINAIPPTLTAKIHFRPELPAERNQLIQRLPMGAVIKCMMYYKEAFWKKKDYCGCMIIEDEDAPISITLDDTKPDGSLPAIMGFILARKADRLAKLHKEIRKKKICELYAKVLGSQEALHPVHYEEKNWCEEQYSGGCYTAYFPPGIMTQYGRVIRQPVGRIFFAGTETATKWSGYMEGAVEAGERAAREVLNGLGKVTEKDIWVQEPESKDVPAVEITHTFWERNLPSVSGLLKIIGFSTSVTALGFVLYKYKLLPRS

As for `O=C(c1ccccc1)N1CCc2cc([C@@H]3C[C@H]3NCC3CCNCC3)ccc21` (relative stereo) [Compound A45, trans-phenyl (5-(2-(piperidin-4-ylmethylamino)cyclopropyl)indolin-1-yl)methanone], the IC50 in experiment [1] (3 D, read-out: MTS 3 D) is greater than 20 µM; in experiment [1] (10 D, read-out: MTS 10 D), 4.14 ± 3.47 µM; on Human recombinant MAOA, greater than 100 µM; on human recombinant MAOB, 32.9 ± 1.24 µM.
In the case of `CCCC(=O)N1CCc2cc([C@@H]3C[C@H]3NCC3CCNCC3)ccc21` (relative stereo) [Compound A54, Trans-1-(5-(2-(piperidin-4-ylmethylamino)cyclopropyl)indolin-1-yl)butan-1-one], the IC50 on Human recombinant MAOA and on human recombinant MAOB was greater than 100 µM throughout.
As to `O=S(=O)(c1ccccc1)N1CCc2cc([C@@H]3C[C@H]3NCCC3CCNCC3)ccc21` (relative stereo) [Compound A16, trans-N-(4-piperidinylethyl)-2-(1-(phenylsulfonyl)indolin-5-yl)cyclopropylamine], the IC50 is 8.25 ± 1.7 µM in experiment [1] (3 D, read-out: MTS 3 D); 1.21 ± 0.4 µM in experiment [1] (10 D, read-out: MTS 10 D); greater than 100 µM on Human recombinant MAOA; greater than 100 µM on human recombinant MAOB.
As for `O=C(O)c1ccc(CN2CCC(CN[C@@H]3C[C@H]3c3ccccc3)CC2)cc1` [GSK2879552, GSK-2879552, reference compound], the IC50 in experiment [1] (3 D, read-out: MTS 3 D) was greater than 20 µM; in experiment [1] (10 D, read-out: MTS 10 D), 1.81 µM; at Human recombinant LSD1, 0.404 ± 0.0308 µM; on Human recombinant MAOA, greater than 100 µM; on human recombinant MAOB, greater than 100 µM.
For the molecule `O=S(=O)(c1ccccc1)N1CCc2cc([C@@H]3C[C@H]3NCC3CCN(Cc4ccccc4)CC3)ccc21` (relative stereo) [Compound A24, trans-N-((1-benzylpiperidin-4-yl)methyl)-2-(1-(phenylsulfonyl)indolin-5-yl)cyclopropylamine], the IC50 was 15.9 ± 2 µM at Human recombinant MAOA and greater than 100 µM on human recombinant MAOB.
For `CCC(=O)N1CCc2cc([C@@H]3C[C@H]3NCC3CCNCC3)ccc21` (relative stereo) [Compound A53, Trans-1-(5-(2-(piperidin-4-ylmethylamino)cyclopropyl)indolin-1-yl)propan-1-one], the IC50 on Human recombinant MAOA and at human recombinant MAOB was greater than 100 µM in each case.
Regarding `O=C(Cc1ccccc1)N1CCc2cc([C@@H]3C[C@H]3NCC3CCNCC3)ccc21` (relative stereo) [Compound A49, Trans-2-phenyl-1-(5-(2-(piperidin-4-ylmethylamino)cyclopropyl)indolin-1-yl)ethanone], the IC50 in experiment [1] (3 D, read-out: MTS 3 D) is greater than 20 µM; in experiment [1] (10 D, read-out: MTS 10 D), 3.23 ± 3.64 µM; at Human recombinant MAOA, greater than 100 µM; at human recombinant MAOB, greater than 100 µM.
Consider `CS(=O)(=O)N1CCc2cc([C@@H]3C[C@H]3NCC3CCNCC3)ccc21` (relative stereo) [Compound A40, Trans-2-(1-(methylsulfonyl)indolin-5-yl)-N-(piperidin-4-ylmethyl)cyclopropylamine], for which the IC50 at Human recombinant MAOA and on human recombinant MAOB was greater than 100 µM each time.
`COc1cccc(S(=O)(=O)N2CCc3cc([C@@H]4C[C@H]4NCC4CCNCC4)ccc32)c1` (relative stereo) [Compound A39, trans-2-(1-(3-methoxybenzenesulfonyl)indolin-5-yl)-N-(piperidin-4-ylmethyl)cyclopropylamine]: the results for the IC50 at Human recombinant MAOA and at human recombinant MAOB were 38.6 ± 5.23 µM and greater than 100 µM, respectively.
With `O=S(=O)(N1CCc2cc([C@@H]3C[C@H]3NCC3CCNCC3)ccc21)C(F)(F)F` (relative stereo) [Compound A42, trans-N-(piperidin-4-ylmethyl)-2-(1-(trifluoromethanesulfonyl)indolin-5-yl)cyclopropylamine], the values for the IC50 at Human recombinant MAOA and on human recombinant MAOB were 86.6 ± 1.05 µM and 3.14 ± 0.15 µM, respectively.
The like results for `O=S(=O)(c1ccc2ccccc2c1)N1CCc2cc([C@@H]3C[C@H]3NCC3CCNCC3)ccc21` (relative stereo) [Compound A33, Trans-2-(1-(naphthalen-2-ylsulfonyl)indolin-5-yl)-N-(piperidin-4-ylmethyl)cyclopropylamine] were, in that order, 35.5 ± 0.87 µM and 82 ± 1.39 µM.
The like results for `CC1(CN[C@@H]2C[C@H]2c2ccc3c(c2)CCN3S(=O)(=O)c2ccccc2)CCNCC1` (relative stereo) [Compound A21, trans-N-((4-methylpiperidin-4-yl)methyl)-2-(1-(phenylsulfonyl)indolin-5-yl)cyclopropylamine] were, in that order, greater than 100 µM and greater than 100 µM.
`NC1CCC(CNC2CC2c2ccc3c(c2)CCN3S(=O)(=O)c2ccccc2)CC1` (stereo not drawn) [Compound A18, trans-4-((2-(1-(phenylsulfonyl)indolin-5-yl)cyclopropylamino)methyl)cyclohexylamine]: the IC50 at Human recombinant MAOA turned out to be 96.3 ± 2.05 µM.
`O=S(=O)(c1cccc(Cl)c1)N1CCc2cc([C@@H]3C[C@H]3NCC3CCNCC3)ccc21` (relative stereo) [Compound A38, trans-2-(1-(3-chlorobenzenesulfonyl)indolin-5-yl)-N-(piperidin-4-ylmethyl)cyclopropylamine]: the IC50 at Human recombinant MAOA worked out at 73.9 ± 1.34 µM; at human recombinant MAOB, 40.9 ± 1.41 µM.
As to `NC1CCC(NC2CC2c2ccc3c(c2)CCN3S(=O)(=O)c2ccccc2)CC1` (stereo not drawn) [Compound A19, trans-N1-(2-(1-(phenylsulfonyl)indolin-5-yl)cyclopropyl)cyclohexane-1,4-diamine], the IC50 in experiment [1] (3 D, read-out: MTS 3 D) amounted to 8.55 ± 1.84 µM; in experiment [1] (10 D, read-out: MTS 10 D), 1.16 ± 0.26 µM.
Turning to `O=S(=O)(c1ccc(-c2ccccc2)cc1)N1CCc2cc([C@@H]3C[C@H]3NCC3CCNCC3)ccc21` (relative stereo) [Compound A32, Trans-2-(1-(biphenyl-4-ylsulfonyl)indolin-5-yl)-N-(piperidin-4-ylmethyl)cyclopropylamine], the results for the IC50 on Human recombinant MAOA and on human recombinant MAOB were greater than 100 µM and 89.4 ± 2.05 µM, respectively.
Take `CC(C)(C)C(=O)N1CCc2cc([C@@H]3C[C@H]3NCC3CCNCC3)ccc21` (relative stereo) [Compound A58, Trans-2,2-dimethyl-1-(5-(2-(piperidin-4-ylmethylamino)cyclopropyl)indolin-1-yl)propan-1-one]: the IC50 is greater than 20 µM in experiment [1] (3 D, read-out: MTS 3 D); 1.23 ± 1.13 µM in experiment [1] (10 D, read-out: MTS 10 D); greater than 100 µM on Human recombinant MAOA; 70.7 ± 12.6 µM at human recombinant MAOB.
With `O=S(=O)(C1CCCCC1)N1CCc2cc([C@@H]3C[C@H]3NCC3CCNCC3)ccc21` (relative stereo) [Compound A43, trans-2-(1-(cyclohexylsulfonyl)indolin-5-yl)-N-(piperidin-4-ylmethyl)cyclopropylamine], the IC50 at Human recombinant MAOA and on human recombinant MAOB was greater than 100 µM each time.
With `O=S(=O)(c1ccccc1)N1CCc2cc(C3CC3NCC3CCNCC3)ccc21` (stereo not drawn) [Compound A14, trans-N-(4-piperidinylmethylene)-2-(1-(phenylsulfonyl)indolin-5-yl)cyclopropylamine], the IC50 in experiment [1] (3 D, read-out: MTS 3 D) is 7.91 ± 1.61 µM; in experiment [1] (10 D, read-out: MTS 10 D) it was 1.36 ± 0.92 µM.
Turning to `CCCCC(=O)N1CCc2cc([C@@H]3C[C@H]3NCC3CCNCC3)ccc21` (relative stereo) [Compound A55, Trans-1-(5-(2-(piperidin-4-ylmethylamino)cyclopropyl)indolin-1-yl)pentan-1-one], the IC50 at Human recombinant MAOA and on human recombinant MAOB was greater than 100 µM in each case.
As for `O=S(=O)(c1ccccc1)N1CCc2cc([C@@H]3C[C@H]3NCC3CNC3)ccc21` (relative stereo) [Compound A17, trans-N-(azetidin-3-ylmethyl)-2-(1-(phenylsulfonyl)indolin-5-yl)cyclopropylamine], the IC50 on Human recombinant MAOA was determined as 16.2 ± 0.31 µM; on human recombinant MAOB, 9.22 ± 0.98 µM.
In the case of `O=S(=O)(c1ccccc1)N1CCc2cc([C@@H]3C[C@H]3NC3CC4(CCNCC4)C3)ccc21` (relative stereo) [Compound A20, trans-N-(2-(1-(phenylsulfonyl)indolin-5-yl)cyclopropyl)-7-azaspiro[3.5]nonane-2-amine], the IC50 at Human recombinant MAOA and on human recombinant MAOB was greater than 100 µM each time.
As to `O=S(=O)(c1ccccc1)N1CCc2cc(C3CC3NCc3c[nH]c4ccccc34)ccc21` (stereo not shown) [Compound A8], the IC50 in experiment [1] (3 D, read-out: MTS 3 D) worked out at 1.25 ± 0.51 µM; in experiment [1] (10 D, read-out: MTS 10 D), 0.6 ± 0.13 µM.
In the case of `O=S(=O)(c1cccc(C(F)(F)F)c1)N1CCc2cc([C@@H]3C[C@H]3NCC3CCNCC3)ccc21` (relative stereo) [Compound A35, trans-N-(piperidin-4-ylmethyl)-2-(1-(3-(trifluoromethyl)benzenesulfonyl)indolin-5-yl)cyclopropylamine], the IC50 at Human recombinant MAOA turned out to be 49.8 ± 20.9 µM; at human recombinant MAOB it was 86.2 ± 18.7 µM.
In the case of `COCCC(=O)N1CCc2cc([C@@H]3C[C@H]3NCC3CCNCC3)ccc21` (relative stereo) [Compound A56, Trans-3-methoxy-1-(5-(2-(piperidin-4-ylmethylamino)cyclopropyl)indolin-1-yl)propan-1-one], the IC50 on Human recombinant LSD1 was 0.0269 ± 0.0221 µM; on Human recombinant MAOA, greater than 100 µM; on human recombinant MAOB, greater than 100 µM.
